The text below walks through data of patent US8901313B2, “6,5-heterocyclic propargylic alcohol compounds and uses therefor” (Genentech, Inc., priority 2011, dated 2014).

Test [1] concerns REL-A (p65) nuclear translocation in HeLa cells. As to the kind of experiment: NIK RelA Translocation Assay (classical NF-kB signaling). The test is classed as cell-based. The settings on record: Homo sapiens. As for the experimental part:
(2) A second set of cell assay was used to define the selectivity of NIK inhibitors toward inhibition of classical vs. non-classical NF-kB signaling and rely on quantification of the nuclear translocation of p52 (NF-kB2) and REL-A (p65) using high content cellular imaging. For the p52 (non-classical NF-kB signaling) nuclear translocation assay, HeLa cells were treated with different concentrations of compounds (0.2% DMSO final) in medium containing 10% fetal bovine serum and then stimulated with 100 ng/mL of an anti-lymphotoxin beta receptor antibody (R&D Systems) for 5 hours. In the REL-A nuclear translocation assay, HeLa cells were incubated with compounds (0.2% DMSO final) for 4.5 hours in medium containing 10% fetal bovine serum before stimulating them with 10 ng/mL tumor necrosis factor (TNF)-α (R&D Systems) for 30 minutes. Cells were fixed with 4% paraformaldehyde, permeabilized by adding 0.1% Triton X-100 in phosphate buffered saline, and then incubated with either 2 ug/mL anti-p52 antibody (Millipore) or 400 ng/mL anti-REL-A (p65) antibody (Santa Cruz Biotechnology). Finally, the cells were incubated with an Alexa488-labeled secondary antibody (Invitrogen) and DRAQ5 DNA stain (Biostatus). Imaging was carried out using an Opera reader (Perkin Elmer) and data are analyzed with the aid of Acapella software (Perkin Elmer). The p52 or REL-A translocation into the nucleus was quantified by the ratio of the nuclear to cytoplasmic signal intensity. The concentration of inhibitor required for 50% inhibition (IC50 values) in these cell assays were derived from the plots of signal vs. inhibitor concentration. The compounds in listed in Table 1 have the corresponding inhibitory value (IC50 in micromolar) for NIK p52 Translocation Assay (values for compounds are presented in the same order as found in Table 1, and “na” means the data for this assay is to be determined): 0.326, 0.33, na, na, na, 0.218, 0.07, na, na, na, 0.129, 7.6, 0.077, 3.4, na, 0.518, na, 0.059, 0.514, 0.127, na, na, 0.010, na, na, 0.313, 0.275, na, 0.0727, na, na, na, na, na, na, 0.194, na, 6.4, 0.22, 0.346, na, na, na and na, na, na, na, na, na, 0.447, na, 0.089, 0.479, 0.489, 0.243, 0.747, 1, na, 1.9, 0.552, 2.1, na. na, na, na, na and na.
The compounds in listed in Table 1 has the corresponding inhibitory value (IC50 in micromolar) for NIK RelA Translocation Assay (values for compounds are presented in the same order as found in Table 1): 0.326, 0.33, na, na, na, 0.218, 0.07, na, na, na, na, na, 0.129, 7.6, 0.077, 3.4, na, 0.518, na, 0.059, 0.514, 0.127, na, na, 0.010, na, na, 0.313, 0.275, na, na, 0.0727, na, na, na, na, na, na, 0.194, na, 6.4, 0.22, 0.346, na, na, na, na, na, na, na, na, na, 0.447, na, 0.089, 0.479, 0.489, 0.243, 0.747, 1, na, 1.9, 0.552, 2.1, na, na, na, na, na and na.

Test [2] concerns human embryonic kidney 293 cells. Description: 293-NIK TK Renilla Luciferase reporter (general measure of cell viability). The test is classed as cell-based. An excerpt: (1) The first assay was used to profile whether a test compound can inhibit the NF-kB signally through NIK inhibition without affecting cell viability. In this assay, human embryonic kidney 293 cells was stably transfected with a tetracycline-inducible NIK DNA construct containing a cytomegalovirus promoter plus two reporter DNA constructs. One reporter encoded firefly luciferase under the control of three repeats of an NF-kB response element from the ELAM-1 gene and reflects the level of NIK activity in the cells, whereas the other reporter constitutively expressed Renilla luciferase under the control of the herpes simplex virus thymidine kinase promoter and served as a general measure of cell viability. Cells were incubated with different concentrations of compounds (0.2% DMSO final) in medium containing 1 ug/mL doxycycline and 10% tet-system approved fetal bovine serum (Clontech) for 24 hours, after which the reporters' signals were detected using the Dual Glo luciferase detection system (Promega) according to the vendor's protocol. The compounds listed in Table 1 have the corresponding inhibitory value (IC50 in micromolar) for 293-NIK NF-kB-Luciferase activity (values for compounds are presented in the same order as found in Table 1): na, 0.059, na, na, na, 0.105, 0.027, na, 20, 1.2, na, 1.8, 0.0231, 0.879, 0.0361, 0.582, na, 0.142, na, 0.403, 0.059, 0.0331, na, na, 0.0573, 1.5, na, na, 0.0722, na, na, 0.589, 12.7, 3.7, 14.9, na, 0.707, 1, 0.0311, 0.332, 0.309, 0.0142, 0.051, 2.8, 0.129, na, na, 1.5, na, na, na, 1.3, 0.062, 20, 0.31, 0.104, 0.091, 0.037, 0.085, 0.279, na, 0.305, 0.064, 0.332, 0.133, 0.168, 0.217, 0.553, na and na.
The compounds in listed in Table 1 have the corresponding inhibitory value (IC50 in micromolar) for 293-NIK TK Renilla Luciferase activity: (values for compounds are presented in the same order as found in Table 1): 6.4, 3.6, 20, na, 1.6, 9.3, 18.5, na, na, 2.6, na, na, na, na, na, na, na, na, na, na, na, na, na, na, na, na, na, na, na, na, na, na, na, na, na, na, na, na, na, na, na, na, na, na, na, na, na, >20, na, na, na, 20, >20, 17, 1.3, 15.6, 0.967, 2.7, 11.2, 5.1, na, 20, 20, 20, 20, 20, 17.6, 20, na and na.
A general note: A reporter such as luciferase makes a cellular process visible.

In test [3] the test system is p52 (NF-kB2) nuclear translocation in HeLa cells. As to the kind of experiment: NIK p52 Translocation Assay (non-classical NF-kB signaling). The note with it: Homo sapiens. The class given is cell-based. Put shortly: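 HeLa cells in 10% FBS medium were exposed to compound (0.2% DMSO final) and stimulated with 100 ng/mL anti-lymphotoxin β receptor antibody for 5 h. Fixed cells were immunostained for p52 with DRAQ5 counterstain and imaged by high-content imaging. IC50 from nuclear/cytoplasmic p52 signal ratio vs concentration.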

The target in test [4] is T1, nuclear factor-kappa B (NF-kB)-inducing kinase (NIK) (Homo sapiens, UniProt Q99558).
T1 construct: made in house; host or cells: baculovirus-infected insect cells
T1 sequence (Q99558 whole entry): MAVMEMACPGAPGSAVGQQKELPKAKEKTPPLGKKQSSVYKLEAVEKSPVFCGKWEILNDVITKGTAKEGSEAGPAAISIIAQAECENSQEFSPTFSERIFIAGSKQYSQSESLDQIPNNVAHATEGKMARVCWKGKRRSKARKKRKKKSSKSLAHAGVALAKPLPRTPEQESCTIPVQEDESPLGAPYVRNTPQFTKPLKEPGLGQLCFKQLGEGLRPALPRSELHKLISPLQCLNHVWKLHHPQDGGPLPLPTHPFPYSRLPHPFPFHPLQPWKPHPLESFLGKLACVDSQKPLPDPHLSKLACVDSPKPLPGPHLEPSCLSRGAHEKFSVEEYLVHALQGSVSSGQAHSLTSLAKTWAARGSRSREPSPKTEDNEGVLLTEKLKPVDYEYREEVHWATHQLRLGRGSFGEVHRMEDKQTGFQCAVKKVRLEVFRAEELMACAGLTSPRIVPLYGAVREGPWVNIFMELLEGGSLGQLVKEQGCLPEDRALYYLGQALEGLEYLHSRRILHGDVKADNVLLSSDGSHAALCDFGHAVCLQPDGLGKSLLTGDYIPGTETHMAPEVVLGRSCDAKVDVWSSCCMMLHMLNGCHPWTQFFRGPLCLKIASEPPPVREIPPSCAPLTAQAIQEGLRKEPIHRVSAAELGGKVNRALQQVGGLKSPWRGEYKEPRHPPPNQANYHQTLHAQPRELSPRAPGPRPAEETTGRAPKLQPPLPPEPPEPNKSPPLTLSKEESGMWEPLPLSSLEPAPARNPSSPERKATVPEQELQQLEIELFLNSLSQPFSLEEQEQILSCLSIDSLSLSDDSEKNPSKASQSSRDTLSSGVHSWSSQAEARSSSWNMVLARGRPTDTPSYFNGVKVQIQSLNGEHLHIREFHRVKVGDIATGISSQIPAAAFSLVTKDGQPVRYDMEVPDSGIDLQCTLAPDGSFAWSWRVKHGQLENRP
As to the kind of experiment: NIK Enzyme Inhibition Assay (Transcreener ADP assay). The test is classed as biochemical.

In test [5] the test system is NF-kB signaling through NIK in human embryonic kidney 293 cells. As to the kind of experiment: 293-NIK NF-kB-Luciferase reporter assay. The class given is cell-based. In outline:
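HEK293 cells stably carrying tetracycline-inducible NIK plus NF-kB (ELAM-1 element) firefly luciferase and constitutive TK-Renilla viability reporter. Compounds (0.2% DMSO) incubated 24 h with 1 ug/mL doxycycline; Dual Glo luminescence read, IC50 from firefly signal.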

[6] abbreviates: HeLa cells, compounds 4.5 hours, 10 ng/mL TNF-α 30 minutes, read-out: inhibitory value (IC50) for NIK RelA Translocation Assay.
[7] abbreviates: HEK293, 293 cells, constitutive Renilla luciferase, 24 hours, read-out: inhibitory value (IC50) for 293-NIK TK Renilla Luciferase activity.
[8] abbreviates: HeLa cells, 100 ng/mL anti-lymphotoxin beta receptor antibody, 5 hours, read-out: inhibitory value (IC50) for NIK p52 Translocation Assay.
[9] abbreviates: purified NIK 0.2-1 nM, 10 uM ATP, fluorescence polarization, Morrison's quadratic equation, read-out: inhibitory value (Ki) for NIK.
Where [10] appears, read: HEK293, 293 cells with tetracycline-inducible NIK, 1 ug/mL doxycycline, 24 hours, read-out: inhibitory value (IC50) for 293-NIK NF-kB-Luciferase activity.
The mark [11] stands for this setting: HeLa, comparative data, Tables 16A-16D, read-out: NIK RelA Translocation (IC50).
The mark [12] stands for this setting: HEK293, comparative data, Tables 16A-16D, read-out: 293-NIK TK Renilla Luciferase (IC50).
Setting [13] is: HeLa, comparative data, Tables 16A-16D, read-out: NIK p52 Translocation (IC50).
[14] abbreviates: comparative data, Tables 16A-16D, read-out: NIK ADP (Ki).
Setting [15] is: HEK293, comparative data, Tables 16A-16D, read-out: 293-NIK NF-kB-Luciferase (IC50).

Molecules are shown by their SMILES. Where two headings read alike, the source gives them in different places.

The term IC50 denotes the concentration that gives 50% inhibition. By Ki is commonly meant the dissociation constant of the complex between target and ligand, obtained from inhibition or displacement. Turning to `Cc1nc(C(C)(O)C#Cc2ccc3c(C)nn(-c4ccnc(N)n4)c3c2)no1` (centres unmarked) [Example T1-57, 4-(1-(2-aminopyrimidin-4-yl)-3-methyl-1H-indazol-6-yl)-2-(5-methyl-1,2,4-oxadiazol-3-yl)but-3-yn-2-ol], the IC50 is 489 nM in test [1] (setting [6]), 967 nM in test [2] (setting [7]), 1000 nM in test [3] (setting [8]) and 91 nM in test [5] (setting [10]). For the same compound, the Ki in test [4] (setting [9]) was 2 nM.

Turning to `Cc1nn(-c2ccnc(N)n2)c2cc(C#CC(C)(O)c3cnccn3)ccc12` (centres unmarked) [Example T1-62, 4-(1-(2-aminopyrimidin-4-yl)-3-methyl-1H-indazol-6-yl)-2-(pyrazin-2-yl)but-3-yn-2-ol], the IC50 in test [1] (setting [6]) is 1900 nM; in test [2] (setting [7]), ≥ 20000 nM; in test [5] (setting [10]), 305 nM. Also, the Ki in test [4] (setting [9]) was 17 nM.

With `Cc1nc2ccc(C#CC(C)(O)c3nccs3)cc2n1-c1ncnc(N)n1` (centres unmarked) [Example T1-53, 4-(1-(4-amino-1,3,5-triazin-2-yl)-2-methyl-1H-benzo[d]imidazol-6-yl)-2-(thiazol-2-yl)but-3-yn-2-ol], the IC50 in test [1] (setting [6]) was 447 nM; in test [2] (setting [7]), > 20000 nM; in test [3] (setting [8]) it was 479 nM; in test [5] (setting [10]), 62 nM. The Ki in test [4] (setting [9]) was determined as 0.4 nM.

Consider `CC(O)(C#Cc1ccc2ncn(-c3ccnc(N)n3)c2c1)c1nccs1` (centres unmarked) [4-(1-(2-aminopyrimidin-4-yl)-1H-benzo[d]imidazol-6-yl)-2-(thiazol-2-yl)but-3-yn-2-ol], for which the IC50 in test [1] (setting [11]) was > 20000 nM; in test [2] (setting [12]), 4900 nM; in test [3] (setting [13]) it was 70 nM; in test [5] (setting [15]), 27 nM. For the same compound, in test [4] (setting [14]), the Ki came to 0.3 nM.

For `Cc1nn(-c2ccnc(N)n2)c2cc(C#CC(C)(O)c3nccs3)ccc12` (centres unmarked) [4-(1-(2-aminopyrimidin-4-yl)-3-methyl-1H-indazol-6-yl)-2-(thiazol-2-yl)but-3-yn-2-ol], the IC50 in test [1] (setting [11]) is > 20000 nM; in test [2] (setting [12]) it was 1200 nM; in test [3] (setting [13]), 222 nM; in test [5] (setting [15]), 11 nM. In addition, the Ki in test [4] (setting [14]) turned out to be 0.1 nM.

For `Cc1cc(C(C)(O)C#Cc2ccc3c(C(=O)N(C)C)nn(-c4ccnc(N)n4)c3c2)no1` (centres unmarked) [Example T1-59, 1-(2-aminopyrimidin-4-yl)-6-(3-hydroxy-3-(5-methyl-isoxazol-3-yl)but-1-ynyl)-N,N-dimethyl-1H-indazole-3-carboxamide], the IC50 was 747 nM in test [1] (setting [6]), 11200 nM in test [2] (setting [7]), 1900 nM in test [3] (setting [8]) and 85 nM in test [5] (setting [10]). Besides, in test [4] (setting [9]), the Ki worked out at 0.49 nM.

Consider `Cc1cc(C(C)(O)C#Cc2ccc3nc(C)n(-c4ncnc(N)n4)c3c2)no1` (centres unmarked) [Example T1-64, 4-(1-(4-amino-1,3,5-triazin-2-yl)-2-methyl-1H-benzo[d]imidazol-6-yl)-2-(5-methyl-isoxazol-3-yl)but-3-yn-2-ol], for which the 50% inhibitory concentration (IC50) in test [1] (setting [6]) is 2100 nM; in test [2] (setting [7]) it was ≥ 20000 nM; in test [5] (setting [10]), 332 nM. For the same compound, in test [4] (setting [9]), the Ki turned out to be 5 nM.

As to `Cc1cc(C(C)(O)C#Cc2ccc3c(C)nn(-c4ccnc(N)n4)c3c2)no1` (centres unmarked) [Example T1-58, 4-(1-(2-aminopyrimidin-4-yl)-3-methyl-1H-indazol-6-yl)-2-(5-methylisoxazol-3-yl)but-3-yn-2-ol], the IC50 in test [1] (setting [6]) came out at 243 nM; in test [2] (setting [7]), 2700 nM; in test [5] (setting [10]), 37 nM. Moreover, the Ki in test [4] (setting [9]) turned out to be 0.15 nM.

As for `C[C@@](O)(C#Cc1ccc2nc(C3CC3)n(-c3ncnc(N)n3)c2c1)c1nccs1` [Example T1-63, (R)-4-(1-(4-amino-1,3,5-triazin-2-yl)-2-cyclopropyl-1H-benzo[d]imidazol-6-yl)-2-(thiazol-2-yl)but-3-yn-2-ol], the IC50 in test [1] (setting [6]) was 552 nM; in test [2] (setting [7]) it was ≥ 20000 nM; in test [5] (setting [10]), 64 nM. Further, in test [4] (setting [9]), the Ki amounted to 0.23 nM.

`CC(O)(C#Cc1ccc2cnn(-c3ccnc(N)n3)c2c1)c1nccs1` (centres unmarked) [Example T1-1, 4-(1-(2-aminopyrimidin-4-yl)-1H-indazol-6-yl)-2-(thiazol-2-yl)but-3-yn-2-ol]: the IC50 in test [1] (setting [6]) was 326 nM; in test [2] (setting [7]), 6400 nM; in test [3] (setting [8]) it was 326 nM.
